Source: patent US10294202B2, “Pyrrolidinones as herbicides” (FMC Corporation, priority 2013, dated 2019)

Tests used:
lambsquarters = test: Test C pre-/postemergence herbicide test; format: in vivo, Chenopodium album; conditions: Preemergence; for Plant response rating, Lambsquarters: 125 g ai/ha; for Plant response rating (scale of 0 to 100), Lambsquarters: 250 g ai/ha
Outline: (§1)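 Test compounds, formulated in a surfactant-containing non-phytotoxic solvent blend, are applied to seeded loam/sand soil (preemergence) and to young plants at the 1- to 4-leaf stage in peat-based medium (postemergence). Plants stay 13 to 15 days under greenhouse conditions, then are scored visually relative to controls, 0 = no effect, 100 = complete control.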

corn = test: Test A pre-/postemergence herbicide test; format: in vivo, Zea mays; conditions: Postemergence
Outline: (§2)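 Planted in loam–sand blend; treated the same day preemergence by directed soil spray, while separately grown plants at one- to two-leaf stage got postemergence spray. Compared visually with untreated controls after approximately 10 days; 100 means complete control.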

ragweed = test: Test C pre-/postemergence herbicide test; format: in vivo, Ambrosia elatior; conditions: Preemergence; for Plant response rating, Ragweed: 125 g ai/ha; for Plant response rating (scale of 0 to 100), Ragweed: 250 g ai/ha
Text: (§3) Seeds of plant species selected from blackgrass (Alopecurus myosuroides), ryegrass, Italian (Italian ryegrass, Lolium multiflorum), wheat (winter wheat, Triticum aestivum), galium (catchweed bedstraw, Galium aparine), corn (Zea mays), crabgrass, large (large crabgrass, Digitaria sanguinalis), foxtail, giant (giant foxtail, Setaria faberii), johnsongrass (Sorghum halepense), lambsquarters (Chenopodium album), morningglory (Ipomoea coccinea), nutsedge, yellow (yellow nutsedge, Cyperus esculentus), pigweed (Amaranthus retroflexus), ragweed (common ragweed, Ambrosia elatior), soybean (Glycine max), barnyardgrass (Echinochloa crus-galli), oilseed rape (Brassica napus), waterhemp (common waterhemp, Amaranthus rudis), kochia (Kochia scoparia), oat, wild (wild oat, Avena fatua), surinam grass (Brachiaria decumbens), foxtail, green (green foxtail, Setaria viridis), goosegrass (Eleusine indica), bromegrass, downy (downy bromegrass, Bromus tectorum), nightshade (eastern black nightshade, Solanum ptycanthum), cocklebur (common cocklebur, Xanthium strumarium), cupgrass, woolly (woolly cupgrass, Eriochloa villosa), bermudagrass (Cynodon dactylon), sunflower, (common oilseed sunflower, Helianthus annuus), Russian thistle (Salsola kali) and velvetleaf (Abutilon theophrasti) were planted into a blend of loam soil and sand and treated preemergence with test chemicals formulated in a non-phytotoxic solvent mixture which included a surfactant. At the same time, plants selected from these crop and weed species and also barley (winter barley, Hordeum vulgare), […]), chickweed (common chickweed, Stellaria media), deadnettle (henbit deadnettle, Lamium amplexicaule), and canarygrass (littleseed canarygrass, Phalaris minor) were planted in pots containing Redi-Earth® planting medium (Scotts Company, 14111 Scottslawn Road, Marysville, Ohio 43041) comprising spaghnum peat moss, vermiculite, wetting agent and starter nutrients and treated with postemergence applications of test chemicals formulated in the same manner. Plants ranged in height from 2 to 18 cm (1- to 4-leaf stage) for postemergence treatments. Treated plants and controls were maintained in a greenhouse for 13 to 15 days, after which time all species were compared to controls and visually evaluated. Plant response ratings, summarized in Table C, are based on a scale of 0 to 100 where 0 is no effect and 100 is complete control. A dash (-) response means no test result.

sedge, umbrella = test: Test B flooded paddy test; format: in vivo, Cyperus difformis; conditions: Flood, scale of 0 to 100 where 0 is no effect and 100 is complete control
Outline: (§4)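 Scoring: visual, compared with untreated controls, 0 = no effect through 100 = complete control, taken 13 to 15 days after treatment in the greenhouse. Compounds had been added to paddy water over soil flooded 3 cm deep at the plants' 2-leaf stage.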

wheat (winter wheat) = test: Test C pre-/postemergence herbicide test; format: in vivo, Triticum aestivum; conditions: Preemergence; for Plant response rating, Wheat: 125 g ai/ha; for Plant response rating (scale of 0 to 100), Wheat: 250 g ai/ha
Text: as §3

giant foxtail = test: Test A pre-/postemergence herbicide test; format: in vivo, Setaria faberii
Outline: as §2

johnsongrass = test: Test C pre-/postemergence herbicide test; format: in vivo, Sorghum halepense; conditions: Preemergence; for Plant response rating, Johnsongrass: 125 g ai/ha; for Plant response rating (scale of 0 to 100), Johnsongrass: 250 g ai/ha
Outline: as §1

rice = test: Test B flooded paddy test; format: in vivo, Oryza sativa; conditions: Flood, scale of 0 to 100 where 0 is no effect and 100 is complete control
Outline: as §4

ducksalad = test: Test B flooded paddy test; format: in vivo, Heteranthera limosa; conditions: Flood, scale of 0 to 100 where 0 is no effect and 100 is complete control
Outline: as §4

crabgrass, large = test: Test C pre-/postemergence herbicide test; format: in vivo, Digitaria sanguinalis; conditions: Preemergence; for Plant response rating, Crabgrass, Large: 125 g ai/ha; for Plant response rating (scale of 0 to 100), Crabgrass, Large: 250 g ai/ha
Text: as §3

pigweed = test: Test C pre-/postemergence herbicide test; format: in vivo, Amaranthus retroflexus; conditions: Preemergence; for Plant response rating, Pigweed: 125 g ai/ha; for Plant response rating (scale of 0 to 100), Pigweed: 250 g ai/ha
Text: as §3

[1] = 31 g ai/ha, scale 0 to 100, 0 is no effect and 100 is complete control
[2] = 62 g ai/ha, scale 0 to 100 (0 no effect, 100 complete control)
[3] = scale 0 to 100 (0 no effect, 100 complete control)
[4] = 125 g ai/ha, 0 to 100 scale, 0 is no effect, 100 is complete control
[5] = 125 g ai/ha, visual rating, 0 to 100 scale, 0 no effect, 100 complete control, approximately 10 days, preemergence
[6] = Postemergence, 125 g ai/ha, 0 to 100 scale, 0 is no effect, 100 is complete control
[7] = preemergence, 500 g ai/ha, 0 to 100 scale, 0 is no effect and 100 is complete control
[8] = 125 g ai/ha, visual rating on 0 to 100 scale (0 no effect, 100 complete control), approx. 10 days
[9] = 500 g ai/ha, 0 to 100 scale (0 no effect, 100 complete control)
[10] = Postemergence, 125 g ai/ha, visual rating on 0 to 100 scale (0 no effect, 100 complete control), approx. 10 days
[11] = Postemergence, 500 g ai/ha, 0 to 100 scale (0 no effect, 100 complete control)
[12] = Preemergence, 125 g ai/ha, 0 to 100 scale where 0 is no effect and 100 is complete control
[13] = Preemergence, 500 g ai/ha, visual rating on 0 to 100 scale (0 no effect, 100 complete control)

| Structure (SMILES) | Lambsquarters plant response rating (lambsquarters; [1]) | Lambsquarters plant response rating (lambsquarters; [2]) | Plant response rating (scale of 0 to 100), Lambsquarters (lambsquarters) | Ragweed plant response rating (ragweed; [2]) | Plant response rating, Sedge, Umbrella (sedge, umbrella; 500 g ai/ha) | Wheat plant response rating (wheat (winter wheat); [2]) | Johnsongrass plant response rating (johnsongrass; [1]) | Johnsongrass plant response rating (johnsongrass; [2]) | Plant response rating (scale of 0 to 100), Johnsongrass (johnsongrass) | Plant response rating, Rice (rice; 500 g ai/ha) | Plant response rating, Ducksalad (ducksalad; 500 g ai/ha) | Crabgrass, Large plant response rating (crabgrass, large; [1]) | Crabgrass, Large plant response rating (crabgrass, large; [2]) | Plant response rating (scale of 0 to 100), Crabgrass, Large (crabgrass, large) | Pigweed plant response rating (pigweed; [1]) | Pigweed plant response rating (pigweed; [2]) | Plant response rating, Lambsquarters (lambsquarters; scale 0 to 100) | Plant response rating, Corn (corn; [8]) | Plant response rating, Corn (corn; [9]) | Plant response rating, Ragweed (ragweed; scale 0 to 100) | further results |
| --- | --- | --- | --- | --- | --- | --- | --- | --- | --- | --- | --- | --- | --- | --- | --- | --- | --- | --- | --- | --- | --- |
| O=C1NCC(c2ccc(Cl)cc2)C1C(=O)Nc1cccc(F)c1F (stereo not drawn) [Compound 218] | 10 | 40 | 85 | 35 | 0 | 0 | 0 | 10 | 40 | 0 | 100 | 90 | 90 | 100 | 5 | 50 | – | – | – | – | Plant response rating, Lambsquarters (lambsquarters; [3]): 75; Plant response rating, Corn (corn; [4]): 20; Corn plant response rating (0 to 100 scale, 0 is no effect, 100 is complete control) (corn; 500 g ai/ha): 30; Ragweed plant response rating (ragweed; [1]): 40; Plant response rating, Ragweed (ragweed; [3]): 50; Plant response rating (scale of 0 to 100), Ragweed (ragweed): 85; Wheat plant response rating (wheat (winter wheat); [1]): 0; Plant response rating, Wheat (wheat (winter wheat); [3]): 0; Plant response rating (scale of 0 to 100), Wheat (wheat (winter wheat)): 10; Plant response rating, Foxtail, Giant (giant foxtail; [5]): 90; Plant response rating, Foxtail, Giant (giant foxtail; [6]): 60; Foxtail, Giant plant response rating (0 to 100 scale, 0 is no effect, 100 is complete control) (giant foxtail; Postemergence, 500 g ai/ha): 90; Plant response rating, Foxtail, Giant (giant foxtail; [7]): 90; Plant response rating, Johnsongrass (johnsongrass; [3]): 15; Plant response rating, Crabgrass, Large (crabgrass, large; [3]): 100; Plant response rating, Pigweed (pigweed; [3]): 75; Plant response rating (scale of 0 to 100), Pigweed (pigweed): 85 |
| O=C1NCC(c2ccc(C(F)(F)F)cc2)C1C(=O)Nc1ccccc1F (stereo not drawn) [Compound 231] | 40 | 85 | 100 | 100 | 0 | 15 | 0 | 10 | 60 | 0 | 0 | 90 | 95 | 100 | 35 | 70 | – | – | – | – | Plant response rating, Lambsquarters (lambsquarters; [3]): 85; Plant response rating, Corn (corn; [4]): 30; Corn plant response rating (0 to 100 scale, 0 is no effect, 100 is complete control) (corn; 500 g ai/ha): 40; Ragweed plant response rating (ragweed; [1]): 80; Plant response rating, Ragweed (ragweed; [3]): 80; Plant response rating (scale of 0 to 100), Ragweed (ragweed): 85; Wheat plant response rating (wheat (winter wheat); [1]): 0; Plant response rating, Wheat (wheat (winter wheat); [3]): 20; Plant response rating (scale of 0 to 100), Wheat (wheat (winter wheat)): 80; Plant response rating, Foxtail, Giant (giant foxtail; [5]): 90; Plant response rating, Foxtail, Giant (giant foxtail; [6]): 70; Foxtail, Giant plant response rating (0 to 100 scale, 0 is no effect, 100 is complete control) (giant foxtail; Postemergence, 500 g ai/ha): 90; Plant response rating, Foxtail, Giant (giant foxtail; [7]): 90; Plant response rating, Johnsongrass (johnsongrass; [3]): 45; Plant response rating, Crabgrass, Large (crabgrass, large; [3]): 100; Plant response rating, Pigweed (pigweed; [3]): 85; Plant response rating (scale of 0 to 100), Pigweed (pigweed): 90 |
| CC(C)c1cccc(C2CNC(=O)C2C(=O)Nc2ccccc2F)c1 (stereo not drawn) [Compound 318] | 10 | 55 | 60 | 0 | 0 | 0 | 0 | 0 | 60 | 15 | 100 | 95 | 98 | 100 | 0 | 20 | 50 | 20 | 50 | 0 | Plant response rating, Wheat (wheat (winter wheat); scale 0 to 100): 5; Plant response rating, Foxtail, Giant (giant foxtail; [10]): 40; Plant response rating, Foxtail, Giant (giant foxtail; [11]): 70; Plant response rating, Foxtail, Giant (giant foxtail; [12]): 90; Foxtail, Giant plant response rating (giant foxtail; [13]): 90; Plant response rating, Johnsongrass (johnsongrass; scale 0 to 100): 45; Plant response rating, Crabgrass, Large (crabgrass, large; scale 0 to 100): 98; Plant response rating, Pigweed (pigweed; scale 0 to 100): 20 |
| CC(C)c1cccc(C2CNC(=O)C2C(=O)Nc2cccc(F)c2F)c1 (stereo not drawn) [Compound 319] | 60 | 65 | 75 | 15 | 0 | 0 | 40 | 55 | 75 | 0 | 100 | 95 | 98 | 98 | 30 | 25 | 65 | 40 | 80 | 40 | Plant response rating, Wheat (wheat (winter wheat); scale 0 to 100): 10; Plant response rating, Foxtail, Giant (giant foxtail; [10]): 50; Plant response rating, Foxtail, Giant (giant foxtail; [11]): 90; Plant response rating, Foxtail, Giant (giant foxtail; [12]): 90; Foxtail, Giant plant response rating (giant foxtail; [13]): 90; Plant response rating, Johnsongrass (johnsongrass; scale 0 to 100): 65; Plant response rating, Crabgrass, Large (crabgrass, large; scale 0 to 100): 95; Plant response rating, Pigweed (pigweed; scale 0 to 100): 40 |
| O=C1NCC(c2cccc(C(F)(F)F)c2)C1C(=O)Nc1ccc(F)c(F)c1F (stereo not drawn) [Compound 345] | 100 | 75 | 85 | 40 | – | 10 | 35 | 75 | 90 | – | – | 95 | 98 | 98 | 30 | 30 | 85 | 80 | 90 | 15 | Plant response rating, Sedge, Umbrella (sedge, umbrella; 1000 g ai/ha): 0; Plant response rating, Wheat (wheat (winter wheat); scale 0 to 100): 70; Plant response rating, Foxtail, Giant (giant foxtail; [10]): 90; Plant response rating, Foxtail, Giant (giant foxtail; [11]): 90; Plant response rating, Foxtail, Giant (giant foxtail; [12]): 90; Foxtail, Giant plant response rating (giant foxtail; [13]): 90; Plant response rating, Johnsongrass (johnsongrass; scale 0 to 100): 85; Plant response rating, Rice (rice; 1000 g ai/ha): 0; Plant response rating, Ducksalad (ducksalad; 1000 g ai/ha): 30; Plant response rating, Crabgrass, Large (crabgrass, large; scale 0 to 100): 95; Plant response rating, Pigweed (pigweed; scale 0 to 100): 65 |
